Experiments:
[1] = system: Leukotriene D4 induced respiratory constriction; assay: Leukotriene D4 induced respiratory constriction test; assay type: in vivo; conditions: p.o. 1 hr before i.v. LTD4; anesthetized Hartley male guinea pigs; respiratory inner pressure
Procedure: Leukotriene D4 Induced Respiratory Constriction Test
Respiratory constriction was measured by modifying the method of Konzett and Rossler (Arch. Exp. Pathol. Pharmakol., 195, pp. 71-74 (1940)). Hartley male guinea pigs (400 to 500 g body weight, Nippon SLC Co.) were anesthetized with pentobarbital (50 mg/kg, s.c.), and a cannula was inserted into the trachea to carry out artificial ventilation with an artificial ventilator (manufactured by Harvard Co., Model 683). An inner pressure of the respiratory tract was measured by a differential pressure transducer (Nihon Koden, TP-603T) connected to the respiratory cannula and it is used as an index of respiratory constriction.
LTD4 (0.03, 0.06, 0.13, 0.25, 0.5, 1 and 2 μg/kg, Sigma Co.) was intravenously administered from a cannula inserted into the right jugular vein from a low dose with an interval of 5 minutes to cause a respiratory constriction reaction and an increased amount of a respiratory inner pressure was measured. Test compound was suspended in 0.5% sodium carboxymethyl cellulose aqueous solution, and orally administered 1 hour before administration of LTD4. Animals were fasted for 24 hours before administration of the Test compound.
A2=(Dose of Compound administered)/{(ED50 of group to which Compound was added)/(ED50 of control group)−1}

[2] = biological target: T1, Leukotriene D4 receptor (Cavia porcellus, UniProt Q2NNR5); assay: Leukotriene D4 receptor binding test; conditions: binding inhibition constant (Ki) vs [3H] LTD4 0.2 nM; lung cell membrane fraction from guinea pigs; 25° C. for 30 minutes; read-out: pKi value (converted)
T1 construct: As a receptor sample, a lung cell membrane fraction from guinea pigs was used; from tissue; host or cells: lung membrane fraction of Hartley male guinea pigs
T1 sequence (Q2NNR5 1-340): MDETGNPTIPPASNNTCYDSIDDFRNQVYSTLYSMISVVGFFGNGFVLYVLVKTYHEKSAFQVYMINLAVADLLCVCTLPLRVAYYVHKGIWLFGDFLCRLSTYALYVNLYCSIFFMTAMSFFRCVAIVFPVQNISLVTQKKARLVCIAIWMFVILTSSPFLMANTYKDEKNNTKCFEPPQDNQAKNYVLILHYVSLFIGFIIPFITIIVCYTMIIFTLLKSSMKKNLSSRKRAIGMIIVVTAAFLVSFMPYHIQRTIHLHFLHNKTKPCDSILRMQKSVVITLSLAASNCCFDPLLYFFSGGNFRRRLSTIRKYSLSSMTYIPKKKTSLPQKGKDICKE
Procedure: Leukotriene D4 Receptor Binding Test
As a receptor sample, a lung cell membrane fraction from guinea pigs was used. Preparation of the membrane fraction was carried out according to the method of Ahn et al. (Eur. J. Pharmacol., 127, 153-155 (1986)). Lungs of Hartley male guinea pigs (400 to 500 g body weight, Nippon SLC Co.) were extracted, and perfused with a physiological saline, and then, adding 10 mM of PIPES, 10 mM of MgCl2 and 10 mM of CaCl2 buffer (pH 7.5) to the lung tissue and the mixture was homogenized. This homogenate was centrifuged at 70,000 xg for 10 minutes to obtain a membrane fraction.
Leukotriene D4 (LTD4) recepter binding test was carried out according to the method of Aharony, et al. (J. Pharmacol. Expl.Ther., 243, 921-926 (1987)). To 0.42 mg of the receptor sample were added 10 mM of PIPES, 10 mM of MgCl2 and 10 mM of CaCl2 buffer (pH 7.5) to make the total amount of 480 μl, and 10 μl of [^3H] LTD4 (NEN Life Science Products Co.) and 10 μl of a Test compound in dimethylsulfoxide were added to the mixture, and the resulting mixture was incubated at 25° C. for 30 minutes. The mixtures thus incubated were filtered through a glass fiber filter (Whatman Co., GF/C) using cell harvester (Brandel Co., M-30R). The filter were washed with 10 mM of Tris. and 100 mM of NaCl buffer (pH 7.5), and 5 ml of a liquid scintillator (NACALAI TESQUE INC., clearsol I), and radioactivity was measured by a liquid scintillation analyzer (Packard Co., 2000CA). When a dissociation constant (Kd) of LTD4 was to be obtained, [^3H] LTD4 with 0.03 to 0.5 nM was used, and 1 μM of non-radioactive LTD4 was added. When a binding inhibition constant (Ki) of the Test compound is to be meaured, [^3H] LTD4 with 0.2 nM was used. Kd and Ki are calculated according to the method of Bennett et al. (Neurotransmitter Receptor Binding, 2nd ed., edited by H. I. Yamamura et al., pp. 61-89, Raven Press (1985)).

Row | melting point | Compound | A2 (dose of Test compound required for shifting two-times the LTD4 dose-reaction curve of control group to higher dose side) [1] [µg/kg] | Ki [2] [nM]
1 | 238 to 241 °C | O=C(O)CCSC1c2cc(/C=C/c3ccc4cc(F)c(Cl)cc4n3)ccc2OCc2c(F)cccc21 (stereo not drawn) |  | 
2 | 160 to 163 °C | O=C([O-])CCSC1c2ccccc2COc2ccc(/C=C/c3ccc4ccc(F)cc4n3)cc21.[Na+] (stereo not drawn) |  | 
3 | 195 to 198 °C | O=C(O)CCSC1c2ccccc2COc2ccc(/C=C/c3ccc4ccc(Cl)cc4n3)cc21 (stereo not drawn) |  | 
4 | 204 to 206 °C | O=C(O)CC1(CSC2c3ccccc3COc3ccc(/C=C/c4ccc5ccc(Cl)cc5n4)cc32)CC1 (stereo not drawn) |  | 
5 | 150 to 153 °C | O=C(O)CCSC1c2ccccc2COc2ccc(/C=C/c3ccc4c(n3)CCCC4)cc21 (stereo not drawn) |  | 
6 | 142 to 145 °C | O=C([O-])CC1(CSC2c3ccccc3COc3ccc(/C=C/c4ccc5c(n4)CCCC5)cc32)CC1.[Na+] (stereo not drawn) |  | 
7 | 140 to 142 °C | O=C([O-])CCSC1c2ccccc2COc2ccc(/C=C/c3cc(Cl)c4ccccc4n3)cc21.[Na+] (stereo not drawn) |  | 
8 | 150 to 152 °C | O=C([O-])CCSC1c2ccccc2COc2ccc(/C=C/c3ccc4c(F)cccc4n3)cc21.[Na+] (stereo not drawn) |  | 
9 | 142 to 144 °C | O=C([O-])CC1(CSC2c3ccccc3COc3ccc(/C=C/c4ccc5c(F)cccc5n4)cc32)CC1.[Na+] (stereo not drawn) |  | 
10 | > 300 °C | O=C([O-])CCSC1c2ccccc2COc2ccc(/C=C/c3nc4cc(F)ccc4s3)cc21.[Na+] (stereo not drawn) |  | 
11 | 247 to 250 °C | O=C([O-])CCSC1c2ccccc2COc2ccc(/C=C/c3nc4cc(F)ccc4o3)cc21.[Na+] (stereo not drawn) |  | 
12 | 137 to 139 °C | Cc1ccc(/C=C/c2ccc3c(c2)C(SCCC(=O)[O-])c2ccccc2CO3)nc1C(C)C.[Na+] (stereo not drawn) |  | 
13 | 121 to 123 °C | COC(=O)c1ccc2c(c1)COc1ccc(/C=C/c3ccc4c(n3)CCCC4)cc1C2SCCC(=O)O (stereo not drawn) |  | 
14 | 168 to 173 °C | C[C@@H](CSC1c2ccccc2COc2ccc(/C=C/c3ccc4c(n3)CCCC4)cc21)C(=O)[O-].[Na+] (stereo partly drawn) [Example 26, Sodium 3-{[2-[(E)-2-(5,6,7,8-tetrahydro-2-quinolinyl)ethenyl]-6,11-dihydrodibenz[b,e]oxepin-11-yl]thio}-2-(R)-methylpropionate] |  | 0.316
15 | 168 to 175 °C | CC(C)(CC(=O)[O-])SC1c2ccccc2COc2ccc(/C=C/c3ccc4c(n3)CCCC4)cc21.[Na+] (stereo not drawn) [Example 27, Sodium 3-{[2-[(E)-2-(5,6,7,8-tetrahydro-2-quinolinyl)ethenyl]-6,11-dihydrodibenz[b,e]oxepin-11-yl]thio}-3-methylbutanoate] |  | 

The remaining lines, values behind:

Row | Compound | melting point | A2 (dose of Test compound required for shifting two-times the LTD4 dose-reaction curve of control group to higher dose side) [1] [µg/kg] | Ki [2] [nM]
16 | O=S(=O)([O-])CCSC1c2ccccc2COc2ccc(/C=C/c3ccc4cc(F)c(F)cc4n3)cc21.[Na+] (stereo not drawn) | 246 to 254 °C |  | 
17 | N#Cc1cccc2c1COc1ccc(/C=C/c3ccc4cc(F)c(F)cc4n3)cc1C2SCCC(=O)O (stereo not drawn) | 261 to 264 °C (dec.) |  | 
18 | O=C(O)CC1(CSC2c3cc(/C=C/c4ccc5cc(F)c(Cl)cc5n4)ccc3OCc3c(F)cccc32)CC1 (stereo not drawn) | 237 to 239 °C |  | 
19 | O=C([O-])CC1(CSC2c3ccccc3COc3ccc(/C=C/c4ccc5ccc(F)cc5n4)cc32)CC1.[Na+] (stereo not drawn) | 149 to 152 °C |  | 
20 | O=C([O-])CC1(CSC2c3ccccc3COc3ccc(/C=C/c4ccc5c(F)cc(F)cc5n4)cc32)CC1.[Na+] (stereo not drawn) | 149 to 152 °C |  | 
21 | O=C([O-])CC1(CSC2c3ccccc3COc3ccc(/C=C/c4nc5cc(F)ccc5s4)cc32)CC1.[Na+] (stereo not drawn) | 155 to 157 °C |  | 
22 | O=C([O-])CCSC1c2ccccc2CSc2ccc(/C=C/c3ccc4cc(F)c(F)cc4n3)cc21.[Na+] (stereo not drawn) | 144 to 148 °C |  | 
23 | O=C(CSC1c2ccccc2COc2ccc(/C=C/c3ccc4cc(F)c(F)cc4n3)cc21)NS(=O)(=O)C(F)(F)F.[Na] (stereo not drawn) | 182 to 186 °C |  | 
24 | CS(=O)(=O)NC(=O)CCSC1c2ccccc2COc2ccc(/C=C/c3ccc4cc(F)c(F)cc4n3)cc21.[Na] (stereo not drawn) | 187 to 192 °C |  | 
25 | C[C@H](CSC1c2ccccc2CCc2ccc(/C=C/c3ccc4cc(F)c(F)cc4n3)cc21)C(=O)[O-].[Na+] (stereo partly drawn) | 211 to 220 °C |  | 
26 | O=C([O-])CCSC1c2ccc(F)cc2COc2ccc(/C=C/c3ccc4cc(F)c(F)cc4n3)cc21.[Na+] (stereo not drawn) | 243 to 250 °C |  | 
27 | O=C(O)CCSC1c2ccccc2COc2ccc(/C=C/c3ccc4cc(F)c(F)cc4n3)cc21 (stereo not drawn) | 213 to 216 °C |  | 
28 | O=C(O)CCSC1c2ccccc2COc2ccc(OCc3ccc4cc(F)c(Cl)cc4n3)cc21 (stereo not drawn) [Compound A, 11-(2-carboxyethyl)thio-2-(7-chloro-6-fluoro-quinolin-2-yl)methoxy-6,11-dihydrodibenz[b,e]oxepine, reference compound] |  | 16 | 0.316
29 | O=C([O-])CCSC1c2ccccc2COc2ccc(/C=C/c3ccc4cc(F)c(Cl)cc4n3)cc21.[Na+] (stereo not drawn) [Example 2 (b), Sodium 3-{[2-[(E)-2-(7-chloro-6-fluoro-2-quinolinyl)ethenyl]-6,11-dihydrodibenz[b,e]oxepin-11-yl]thio}propionate] |  | 1.7 | 0.316
30 | O=C([O-])c1ccccc1SC1c2ccccc2COc2ccc(/C=C/c3ccc4cc(F)c(F)cc4n3)cc21.[Na+] (stereo not drawn) [Example 8 (b), Sodium 2-{[2-[(E)-2-(6,7-difluoro-2-quinolinyl)ethenyl]-6,11-dihydrodibenz[b,e]oxepin-11-yl]thio}benzoate] | 183 to 186 °C |  | 
31 | O=C([O-])c1cccc(SC2c3ccccc3COc3ccc(/C=C/c4ccc5cc(F)c(F)cc5n4)cc32)c1.[Na+] (stereo not drawn) [Example 9 (b), Sodium 3-{[2-[(E)-2-(6,7-difluoro-2-quinolinyl)ethenyl]-6,11-dihydrodibenz[b,e]oxepin-11-yl]thio}benzoate] | 184 to 188 °C |  | 
32 | O=C([O-])c1ccc(SC2c3ccccc3COc3ccc(/C=C/c4ccc5cc(F)c(F)cc5n4)cc32)cc1.[Na+] (stereo not drawn) [Example 10 (b), Sodium 4-{[2-[(E)-2-(6,7-difluoro-2-quinolinyl)ethenyl]-6,11-dihydrodibenz[b,e]oxepin-11-yl]thio}benzoate] | 285 to 287 °C (dec.) |  | 
33 | O=C([O-])CCSC1c2cc(/C=C/c3ccc4cc(F)c(F)cc4n3)ccc2OCc2c1cccc2C(F)(F)F.[Na+] (stereo not drawn) [Example 14, Sodium 3-{[2-[(E)-2-(6,7-difluoro-2-quinolinyl)ethenyl]-7-trifluoromethyl-6,11-dihydrodibenz[b,e]oxepin-11-yl]thio}propionate] |  | 4.4 | 0.631
34 | CCC(CSC1c2ccccc2COc2ccc(/C=C/c3ccc4cc(F)c(F)cc4n3)cc21)C(=O)[O-].[Na+] (stereo not drawn) [Example 45, Sodium 3-{[2-[(E)-2-(6,7-difluoro-2-quinolinyl)ethenyl]-6,11-dihydrodibenz[b,e]oxepin-11-yl]thio}-2-ethylpropionate] | 209 to 218 °C |  | 0.158

— patent US20030216571A1, “Tricyclic compounds” (priority 1999, published 2003)
